For test [1], the system named is PF-4840154-induced mechanical hyperalgesia in rats. Description: Agonist (PF-4840154)-induced mechanical hyperalgesia in rats. The format is in vivo. The note with it: Rattus norvegicus, 30 μmol/kg oral, PF-4840154 0.05 nmol/50 μl/paw intraplantar. From the text: Agonist (PF-4840154)-Induced Mechanical Hyperalgesia in Rats
The method is used to investigate the anti-hyperalgesic effects of the compounds listed in the present invention following agonist (PF-4840154)-induced hyperalgesic responses. The activity is indicative of TRPA1 receptor occupancy following oral dosing. Specifically, male SD rats (Charles River, Italy) weighing 70-100 g. were used. The anti-hyperalgesic effects were investigated using the electronic dynamometer test. PF-4840154 (Sigma, USA) was used to induce mechanical hyperalgesia. Local, intraplantar injection of PF-4840154 at 0.05 nmol/50 μl/paw caused the reduction of the hind paw withdrawal response induced by mechanical stimuli. Mechanical stimulation was induced in basal condition and 30, 60, 120, 180 and 240 minutes after the oral administration of the antagonists dissolved in 2.5% DMSO and 30% Solutol. Compounds were orally administered (30 μmol/kg/10 ml) to rats 1 hour before the injection of PF-4840154 into the plantar surface of a rat's hind using a micro syringe.

Test [2] relates to oxaliplatin-induced mechanical hyperalgesia in rats. Description: Oxaliplatin-induced mechanical hyperalgesia in rats. Type of test: in vivo. Particulars: Rattus norvegicus, 168 h, 30 μmol/kg oral, 7 days post i.v. oxaliplatin 2.5 mg/kg. As for the experimental part:
Oxaliplatin-Induced Mechanical Hyperalgesia in Rats
The method described by Nassini et al. (Pain, 2011, 152(7), 1621-31) was used with minor modifications. Restrained rats were treated with a single intravenous bolus injection of oxaliplatin (2.5 mg/kg) dissolved in normal saline. This approach was sufficient to elicit reproducible allodynic behaviour evident 3 days post injection and during the day thereafter. For convenience all acute experiments were conducted 7 days post injection when compounds were orally administered at 30 μmol/kg.

For test [3], the target named is T1, TRPA1 (cultured rat dorsal root ganglia neurons) (Rattus norvegicus, UniProt Q6RI86).
T1 construct: calcium assay data obtained in primary culture of rat dorsal ganglia neurons; from tissue; host or cells: primary culture of dorsal root ganglia neurons from male SD rats
Description: PF-4840154 (10 μM)-induced Ca2+ fluorescence measurements in cultured rat dorsal root ganglia neurons. Type of test: cell-based. The note with it: against 10 μM PF-4840154-induced [Ca2+]i mobilization, primary culture of rat dorsal ganglia neurons. As for the experimental part:
PF-4840154 (10 μM)-Induced Ca^2+ Fluorescence Measurements in Cultured Rat Dorsal Root Ganglia Neurons
Male SD rats (˜50 g, Charles River, Italy) were terminally anaesthetized and decapitated. Dorsal root ganglia were removed and placed in cold Hank's balanced salt solution (HBSS) before being transferred to collagenase (2 mg/ml) and trypsin (1 mg/ml) for 35 min at 37° C. The ganglia, placed in cold DMEM supplemented with 10% fetal bovine serum, 10% horse serum, 2 mM L-glutamine, 100 U/ml penicillin and 100 μg/ml streptomycin, were dissociated in single cells by several passages through a series of syringe needles (23G down to 25G). The medium and the ganglia were filtered to remove debris, topped up with 4 ml of DMEM medium and centrifuged (1100 rpm for 6 min). The final cell pellet was re-suspended in DMEM medium [supplemented with 100 ng/ml mouse Nerve Growth Factor (mouse-NGF-7S) and cytosine-β-D-arabinofuranoside free base (ARA-C) 2.5 μM]. The cells were plated on poly-L-lysine (8.3 μM)- and laminin (5 μM)-coated 25 mm glass cover slips and kept for 2 days at 37° C. in a humidified incubator gassed with 5% CO2 and air, then treated with Fura-2-AM-ester (5 μM) in a Ca^2+ buffer solution having the following composition (mM): CaCl2 1.4, KCl 5.4, MgSO4 0.4, NaCl 135, D-glucose 5, HEPES 10 with BSA (0.1%), at pH 7.4, for 40 min at 37° C. The cells were then washed twice with the Ca^2+ buffer solution and transferred to a chamber on the stage of a Nikon eclipse TE300 microscope. Fura-2-AM-ester was excited at […] to indicate relative [Ca^2+]i changes by the F340/F380 ratio recorded with a dynamic image analysis system (Laboratory Automation 2.0, RCS, Florence, Italy) and the cells were allowed (at least 10 min) to attain a stable fluorescence before beginning the experiment. A calibration curve was set up using buffer containing Fura-2-AM-ester and determinant concentrations of free Ca^2+. This curve was then used to convert the data obtained from the F340/F380 ratio to [Ca^2+]i (nM).
All exemplified compounds were tested at the concentration of 10 μM against the calcium uptake induced by 10 μM PF-4840154. For selected examples, the entire concentration response curves were constructed and the respective IC50 value calculated.

The target in test [4] is T2, native human TRPA1 receptors (Homo sapiens, UniProt O75762).
T2 construct: stably expressing native human TRPA1 receptors were used; endogenous in cells; host or cells: A549 human lung adenocarcinoma epithelial cell line
Description: PF-4840154 (1 μM)-induced Ca2+ fluorescence measurements in A549 cell line. The format is cell-based. Particulars: for inhibition at 10 µM: 10 μM compound against 1 μM PF-4840154, A549 cells; for IC50: against PF-4840154 (1 μM)-evoked [Ca2+]i mobilization, A549 cells. A digest of the protocol:
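A549 cells stably expressing native human TRPA1, Fluo-4 AM loaded; fluorescence Ca2+ read in HBSS with probenecid and Brilliant Black at 36.5 °C. Compounds tested alone for agonism and against 1 μM PF-4840154 for inhibition at initial 10 μM; IC50 from full concentration-response curves for selected compounds.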

The mark [5] stands for this setting: read-out: % of reversal of mechanical allodynia.
The mark [6] stands for this setting: read-out: Maximal inhibition (%).

Where two headings read alike, the source gives them in different places.

T2 sequence (O75762 whole entry): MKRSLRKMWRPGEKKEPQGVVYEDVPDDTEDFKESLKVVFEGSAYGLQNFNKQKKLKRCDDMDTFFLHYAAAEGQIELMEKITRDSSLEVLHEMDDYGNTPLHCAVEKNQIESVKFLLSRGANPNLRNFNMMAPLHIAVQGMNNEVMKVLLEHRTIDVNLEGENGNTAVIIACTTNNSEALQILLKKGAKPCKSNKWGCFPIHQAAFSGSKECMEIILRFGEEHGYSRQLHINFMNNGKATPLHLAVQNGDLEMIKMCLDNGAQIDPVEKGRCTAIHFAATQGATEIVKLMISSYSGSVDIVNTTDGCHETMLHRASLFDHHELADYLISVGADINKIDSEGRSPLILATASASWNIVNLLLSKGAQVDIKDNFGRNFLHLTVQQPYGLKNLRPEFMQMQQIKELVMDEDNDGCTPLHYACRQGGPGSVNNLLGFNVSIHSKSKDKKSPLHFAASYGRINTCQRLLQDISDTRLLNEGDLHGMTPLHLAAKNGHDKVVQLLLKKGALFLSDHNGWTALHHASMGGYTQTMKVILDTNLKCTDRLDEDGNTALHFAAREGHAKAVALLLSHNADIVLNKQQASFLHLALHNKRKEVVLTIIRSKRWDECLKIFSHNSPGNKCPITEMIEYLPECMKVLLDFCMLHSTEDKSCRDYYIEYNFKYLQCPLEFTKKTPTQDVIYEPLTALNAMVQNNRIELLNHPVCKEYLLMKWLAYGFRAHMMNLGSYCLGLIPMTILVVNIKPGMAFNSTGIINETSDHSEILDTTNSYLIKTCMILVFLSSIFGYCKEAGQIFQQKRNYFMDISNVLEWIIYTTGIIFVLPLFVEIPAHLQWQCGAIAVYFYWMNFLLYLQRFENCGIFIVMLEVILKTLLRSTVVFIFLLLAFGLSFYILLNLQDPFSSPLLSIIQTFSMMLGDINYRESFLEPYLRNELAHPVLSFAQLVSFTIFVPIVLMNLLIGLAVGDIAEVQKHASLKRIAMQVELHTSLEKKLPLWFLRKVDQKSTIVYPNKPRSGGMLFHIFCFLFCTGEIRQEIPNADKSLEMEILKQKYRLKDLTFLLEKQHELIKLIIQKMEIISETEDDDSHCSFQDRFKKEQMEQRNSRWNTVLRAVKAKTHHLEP
T1 sequence (Q6RI86 whole entry): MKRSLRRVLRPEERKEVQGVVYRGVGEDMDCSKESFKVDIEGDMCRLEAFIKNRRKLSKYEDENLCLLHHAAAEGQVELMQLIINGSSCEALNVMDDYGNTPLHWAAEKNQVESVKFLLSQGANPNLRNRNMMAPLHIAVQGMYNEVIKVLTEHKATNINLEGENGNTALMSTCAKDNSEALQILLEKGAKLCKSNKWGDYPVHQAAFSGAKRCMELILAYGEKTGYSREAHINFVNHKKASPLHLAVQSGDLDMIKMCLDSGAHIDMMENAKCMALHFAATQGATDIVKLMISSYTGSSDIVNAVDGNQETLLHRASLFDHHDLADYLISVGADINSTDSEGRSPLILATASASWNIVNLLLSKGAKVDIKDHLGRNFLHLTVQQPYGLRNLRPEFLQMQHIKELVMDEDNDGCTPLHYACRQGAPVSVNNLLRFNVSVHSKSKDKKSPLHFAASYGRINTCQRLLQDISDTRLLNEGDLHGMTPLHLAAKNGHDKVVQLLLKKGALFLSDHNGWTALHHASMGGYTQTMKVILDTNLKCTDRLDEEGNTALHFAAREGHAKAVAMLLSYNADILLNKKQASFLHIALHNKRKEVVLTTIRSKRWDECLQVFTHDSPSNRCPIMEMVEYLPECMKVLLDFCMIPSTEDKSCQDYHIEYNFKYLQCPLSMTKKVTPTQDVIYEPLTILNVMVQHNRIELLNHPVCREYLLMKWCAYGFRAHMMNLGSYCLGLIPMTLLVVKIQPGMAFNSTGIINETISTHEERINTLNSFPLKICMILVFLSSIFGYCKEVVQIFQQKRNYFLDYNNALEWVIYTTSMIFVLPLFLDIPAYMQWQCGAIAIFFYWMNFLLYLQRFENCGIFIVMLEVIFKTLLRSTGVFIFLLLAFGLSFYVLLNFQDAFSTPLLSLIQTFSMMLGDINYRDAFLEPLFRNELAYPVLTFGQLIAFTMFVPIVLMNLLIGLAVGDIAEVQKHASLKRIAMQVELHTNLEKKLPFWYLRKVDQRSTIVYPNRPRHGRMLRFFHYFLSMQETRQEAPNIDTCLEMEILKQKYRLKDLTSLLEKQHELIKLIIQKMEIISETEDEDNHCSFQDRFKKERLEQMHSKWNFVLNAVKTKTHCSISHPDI

By IC50 is commonly meant the concentration needed to halve the response being measured. The term inhibition denotes the share of the control response that was lost under treatment. A higher inhibition goes with a response far below the control. With `C=C(C(=O)NCc1ccnc(-c2ccc(C(F)(F)F)cc2)c1)N(CC)S(=O)(=O)c1ccc(F)cc1` [Example 1, 2-[ethyl-(4-fluorophenyl)sulfonyl-amino]-N-[[2-[4-(trifluoromethyl)phenyl]-4-pyridyl]methyl]prop-2-enamide], the inhibition in vivo at 30 µmol/kg in test [1] (setting [5]) is 80%; in test [1] (setting [6]), 80%; in test [2] (setting [5]), 97%; in test [2] (setting [6]), 97%. Further, the IC50 in test [3] is 14 nM; in test [4] it was 15 nM. Further, the inhibition at 10 µM in test [4] is 100%.
Turning to `C=C(C(=O)NCc1cc(-c2ccc(C(F)(F)F)cc2)nc(-c2ccc(C(F)(F)F)cc2)c1)N(CC)S(=O)(=O)c1ccc(Cl)cc1` [Example 19, N-[[2,6-bis[4-(trifluoromethyl)phenyl]-4-pyridyl]methyl]-2-[(4-chlorophenyl)sulfonyl-ethyl-amino]prop-2-enamide], the inhibition in vivo at 30 µmol/kg in test [1] (setting [5]) and in test [1] (setting [6]) was 74% each time. Besides, the IC50 in test [3] turned out to be 68 nM; in test [4], 74 nM. Further, in test [4], testing at 10 µM gave an inhibition of 100%.
For the compound `C=C(C(=O)NCc1cc(-c2ccc(C(F)(F)F)cc2)nc(N2CCCC2)c1)N(CC)S(=O)(=O)c1ccc(F)cc1` [Example 38, 2-[ethyl-(4-fluorophenyl)sulfonyl-amino]-N-[[2-pyrrolidin-1-yl-6-[4-(trifluoromethyl)phenyl]-4-pyridyl]methyl]prop-2-enamide], the inhibition in vivo at 30 µmol/kg in test [1] (setting [5]) and in test [1] (setting [6]) was 87% in each case. In addition, the half-inhibitory concentration (IC50) in test [3] stood at 14 nM; in test [4], 17 nM. The compound further gave an inhibition at 10 µM in test [4] of 100%.

Values taken from patent publication US9409864B2, “Sulfonamide TRPA1 receptor antagonists” (ARIO PHARMA LIMITED, priority 2013, dated 2016).
